From patent US6444677B2, “5-membered heteroaryl substituted 1,4-dihydropyridine compounds as bradykinin antagonists” (Pfizer Inc., priority 1999, dated 2002)

| melting point | Structure (SMILES) |
| --- | --- |
| 154 to 157 °C | CCNCC(C)(C)CN1CCN(C(=O)CC2=C(C(=O)OC)C(c3c(Cl)cccc3Cl)C(C(=O)OC)=C(CCc3nccs3)N2)CC1 (stereo not drawn) [Example 19, Dimethyl 4-(2,6-dichlorophenyl)-2-[2-[4-[3-(ethylamino)-2,2-dimethylpropyl]-1-piperazinyl]-2-oxoethyl]-6-[2-(1,3-thiazol-2-yl)ethyl]-1,4-dihydro-3,5-pyridinedicarboxylate] |
| 175 to 178 °C (dec.) | COC(=O)C1=C(CCc2nccs2)NC(CC(=O)N2CCN(CCCN3CCC(C)C3=O)CC2)=C(C(=O)OC)C1c1c(Cl)cccc1Cl (stereo not drawn) [Example 30, Dimethyl 4-(2,6-dichlorophenyl)-2-[2-[4-[3-(3-methyl-2-oxo-1-pyrrolidinyl)propyl]-1-piperazinyl]-2-oxoethyl]-6-[2-(1,3-thiazol-2-yl)ethyl]-1,4-dihydro-3,5pyridinedicarboxylate] |
| 114 to 116 °C (dec.) | COC(=O)C1=C(CCc2nccs2)NC(CC(=O)N2CCC(C3(CNC(C)=O)CCCCC3)CC2)=C(C(=O)OC)C1c1c(Cl)cccc1Cl (stereo not drawn) [Example 44, Dimethyl 2-[2-[4-[1-[(acetylamino)methyl]cyclohexyl]-1-piperidinyl]-2-oxoethyl]-4-(2,6dichlorophenyl)-6-[2-(1,3-thiazol-2-yl)ethyl]-1,4dihydro-3,5-pyridinedicarboxylate] |
